Data from PubChem BioAssay (NCI).
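1) Cells in 96-well plates. 2) Compound, 48 h, 5 concentrations. 3) Linear interpolation between surrounding doses. 4) Unreached endpoint = highest concentration. The concentration for full growth arrest is given as TGI.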 Where a SMILES comes first, the peptide text is derived from it. [ ]: non-standard residue; d: D form. The star is where a group is joined. mTyr = N[CH](Cc1cccc(O)c1)C(=O)O; Cbz = O=C(OCc1ccccc1)*; OBn = c1ccc(CO*)cc1

Test system: NCI-H522 lung
Experiment: growth of human tumour cells (NCI), 48 h

Row | SMILES | TGI [µM]
1 | COc1ccc2c(c1)CCN1CCc3cc(OC)c(OC)cc3CC21 (stereo not drawn) | > 10
2 | O=c1onc2c3ccccc3ncn12 | > 100
3 | O=C(Nc1cccc(F)c1)c1cc2ccc(O)cc2oc1=Nc1ccccc1F | 10.3
4 | COc1ccc(-n2cnc3c(NC(CCSC)C(=O)O)ncnc32)cc1 (stereo not drawn) | > 100
5 | Nc1ccc(CCN2CCN(CCCc3ccccc3)CC2)cc1 | > 100
6 | CN(C)CCCN1c2ccccc2CCc2ccc([N+](=O)[O-])cc21 | 36.7
7 | COc1ccc(N=C2C(=Nc3ccc(OC)cc3)N(c3ccccc3)C(=S)N2N=C=C2Sc3ccccc3N2C)cc1 | > 100

Test system: OVCAR-8 ovarian
Experiment: growth of human tumour cells (NCI), 48 h

Row | SMILES | TGI [µM]
8 | CC1(O)OC(=O)C2=C1CCC1C2CCC2(C)C(O)CCC12 (stereo not drawn) | > 100
9 | COC(=O)c1c(O)ccc2c1C1(Cc3ccccc3C1=O)C(O)O2 (stereo not drawn) | 36.7
10 | O=C1C[C@@H](c2ccccc2)O[C@@H](c2ccccc2)C1 | > 100
11 | C=CCOC(=O)C1C2OC3(C(C(=O)OC)=C2C(=O)OC)c2ccccc2CCC13 (stereo not drawn) | > 10
12 | Cc1ccc(/C(O)=C/C(=O)C(=O)NN=C(c2ccccc2)c2ccccc2)cc1 | > 100
13 | CC[C@@H](/C=C\CCC(=O)C[C@H](O)CCC=C(C)C)O[Si](C(C)C)(C(C)C)C(C)C | > 100
14 | Cc1ccc2nc(NC(=O)/C(Cc3nc4ccc(Cl)cc4[nH]c3=O)=N\NC(C)(C)C)sc2c1 | > 100
15 | CC1=NN(C(=O)CSc2nc3ccc(I)cc3c(=O)n2Cc2ccccc2)C(=O)C1 | > 100
16 | CCC(c1c[nH]c2ccc(Br)cc12)c1c[nH]c2ccc(Br)cc12 | 21.2
17 | c1ccc(CSCCc2ccncc2)cc1 | > 100
18 | COc1ccc2c(c1)CCN1CCc3cc(OC)c(OC)cc3CC21 (stereo not drawn) | > 100
19 | O=c1onc2c3ccccc3ncn12 | > 100
20 | Cc1n[nH]c(=O)n1/N=C/c1ccc([N+](=O)[O-])o1 | 34.6
21 | O=C(Nc1cccc(F)c1)c1cc2ccc(O)cc2oc1=Nc1ccccc1F | 5.85
22 | COc1ccc(-n2cnc3c(NC(CCSC)C(=O)O)ncnc32)cc1 (stereo not drawn) | > 100
23 | O=C(CC(=O)Nc1ccccc1)N/N=C/c1cc(N=Nc2ccc(Br)cc2)ccc1O | > 10
24 | CCC1(COC(NC(=O)c2ccccc2)(C(F)(F)F)C(F)(F)F)COC1 | > 100
25 | Nc1ccc(CCN2CCN(CCCc3ccccc3)CC2)cc1 | > 100
26 | COC(=O)C(Cc1cccc(O)c1)NC(=O)C(CC(=O)OCc1ccccc1)NC(=O)OCc1ccccc1 (stereo not drawn) (Cbz-Asp(OBn)-[mTyr]-OMe; configuration not given here) | > 100
27 | COc1ccc2oc(=N)c(C(=O)Nc3ccccn3)cc2c1 | > 100
28 | CN(C)CCCN1c2ccccc2CCc2ccc([N+](=O)[O-])cc21 | > 100
29 | COc1ccc(N=C2C(=Nc3ccc(OC)cc3)N(c3ccccc3)C(=S)N2N=C=C2Sc3ccccc3N2C)cc1 | > 100
30 | COc1ccc(CSc2ccccc2Cn2cccc2)cc1OC | > 100
31 | COC(=O)C1=C(OC(=O)c2ccccc2)C(C(=O)OC)[C@]2(O)[C@@H](C(=O)OC)[C@H]1C[C@@H](c1ccccc1)[C@@H]2C(=O)OC (stereo partly drawn) | 20.3

Test system: SN12C renal
Experiment: growth of human tumour cells (NCI), 48 h

Row | SMILES | TGI [µM]
32 | CC1(O)OC(=O)C2=C1CCC1C2CCC2(C)C(O)CCC12 (stereo not drawn) | > 100
33 | COC(=O)c1c(O)ccc2c1C1(Cc3ccccc3C1=O)C(O)O2 (stereo not drawn) | 86.2
34 | O=C1C[C@@H](c2ccccc2)O[C@@H](c2ccccc2)C1 | > 100
35 | C=CCOC(=O)C1C2OC3(C(C(=O)OC)=C2C(=O)OC)c2ccccc2CCC13 (stereo not drawn) | > 10
36 | CC[C@@H](/C=C\CCC(=O)C[C@H](O)CCC=C(C)C)O[Si](C(C)C)(C(C)C)C(C)C | > 100
37 | Cc1ccc2nc(NC(=O)/C(Cc3nc4ccc(Cl)cc4[nH]c3=O)=N\NC(C)(C)C)sc2c1 | > 100
38 | CC1=NN(C(=O)CSc2nc3ccc(I)cc3c(=O)n2Cc2ccccc2)C(=O)C1 | > 100
39 | CCC(c1c[nH]c2ccc(Br)cc12)c1c[nH]c2ccc(Br)cc12 | 15.4
40 | c1ccc(CSCCc2ccncc2)cc1 | > 100
41 | COc1ccc2c(c1)CCN1CCc3cc(OC)c(OC)cc3CC21 (stereo not drawn) | > 100
42 | O=c1onc2c3ccccc3ncn12 | > 100
43 | Cc1n[nH]c(=O)n1/N=C/c1ccc([N+](=O)[O-])o1 | 14.4
44 | O=C(Nc1cccc(F)c1)c1cc2ccc(O)cc2oc1=Nc1ccccc1F | 22.5
45 | COc1ccc(-n2cnc3c(NC(CCSC)C(=O)O)ncnc32)cc1 (stereo not drawn) | > 100
46 | O=C(CC(=O)Nc1ccccc1)N/N=C/c1cc(N=Nc2ccc(Br)cc2)ccc1O | > 10
47 | CCC1(COC(NC(=O)c2ccccc2)(C(F)(F)F)C(F)(F)F)COC1 | > 100
48 | Nc1ccc(CCN2CCN(CCCc3ccccc3)CC2)cc1 | > 100
49 | COC(=O)C(Cc1cccc(O)c1)NC(=O)C(CC(=O)OCc1ccccc1)NC(=O)OCc1ccccc1 (stereo not drawn) (Cbz-Asp(OBn)-[mTyr]-OMe; configuration not given here) | > 100
50 | COc1ccc2oc(=N)c(C(=O)Nc3ccccn3)cc2c1 | > 100
51 | CN(C)CCCN1c2ccccc2CCc2ccc([N+](=O)[O-])cc21 | 58
52 | COc1ccc(N=C2C(=Nc3ccc(OC)cc3)N(c3ccccc3)C(=S)N2N=C=C2Sc3ccccc3N2C)cc1 | > 100
53 | COc1ccc(CSc2ccccc2Cn2cccc2)cc1OC | > 100
54 | COC(=O)C1=C(OC(=O)c2ccccc2)C(C(=O)OC)[C@]2(O)[C@@H](C(=O)OC)[C@H]1C[C@@H](c1ccccc1)[C@@H]2C(=O)OC (stereo partly drawn) | 43.2

Test system: SNB-75 CNS
Experiment: growth of human tumour cells (NCI), 48 h

Row | SMILES | TGI [µM]
55 | O=C1C[C@@H](c2ccccc2)O[C@@H](c2ccccc2)C1 | > 100
56 | Cc1ccc(/C(O)=C/C(=O)C(=O)NN=C(c2ccccc2)c2ccccc2)cc1 | > 100
57 | CC[C@@H](/C=C\CCC(=O)C[C@H](O)CCC=C(C)C)O[Si](C(C)C)(C(C)C)C(C)C | > 100
58 | Cc1ccc2nc(NC(=O)/C(Cc3nc4ccc(Cl)cc4[nH]c3=O)=N\NC(C)(C)C)sc2c1 | 83.1
59 | CC1=NN(C(=O)CSc2nc3ccc(I)cc3c(=O)n2Cc2ccccc2)C(=O)C1 | 85.3
60 | COc1ccc2c(c1)CCN1CCc3cc(OC)c(OC)cc3CC21 (stereo not drawn) | > 100
61 | O=c1onc2c3ccccc3ncn12 | > 100
62 | Cc1n[nH]c(=O)n1/N=C/c1ccc([N+](=O)[O-])o1 | > 100
63 | COc1ccc(-n2cnc3c(NC(CCSC)C(=O)O)ncnc32)cc1 (stereo not drawn) | > 100
64 | O=C(CC(=O)Nc1ccccc1)N/N=C/c1cc(N=Nc2ccc(Br)cc2)ccc1O | > 10
65 | CCC1(COC(NC(=O)c2ccccc2)(C(F)(F)F)C(F)(F)F)COC1 | > 100
66 | COC(=O)C(Cc1cccc(O)c1)NC(=O)C(CC(=O)OCc1ccccc1)NC(=O)OCc1ccccc1 (stereo not drawn) (Cbz-Asp(OBn)-[mTyr]-OMe; configuration not given here) | > 100
67 | COc1ccc2oc(=N)c(C(=O)Nc3ccccn3)cc2c1 | > 100
68 | COc1ccc(CSc2ccccc2Cn2cccc2)cc1OC | > 100
